Values of other authors as cited in patent publication US20170035778A1, “FORMULATIONS AND USES FOR MICROPARTICLE DELIVERY OF METALLOPORPHYRINS” (The Board of Trustees of the Leland Stanford Junior …, priority 2015, published 2017).

Conditions: SnMP within 24 h of birth in premature newborns

tin mesoporphyrin [SnMP]
reduction of the requirement for phototherapy compared with control subjects: approximately 75%
